Measurements reported in patent US20230144901A1, “SORTILIN ANTAGONISTS FOR USE IN THE TREATMENT OF DIABETIC RETINOPATHY” (Insusense ApS, priority 2020, published 2023).

target: T1, hSortilin (Homo sapiens, UniProt Q99523); assay: Neurotensin (NTS) scintillation proximity assay (SPA): displacement of 3H-neurotensin binding to hSortilin; conditions: 150 nM 6his-Sortilin, 5 nM [3H]-Neurotensin; average of at least 4 determinations
T1 sequence (Q99523 78-831): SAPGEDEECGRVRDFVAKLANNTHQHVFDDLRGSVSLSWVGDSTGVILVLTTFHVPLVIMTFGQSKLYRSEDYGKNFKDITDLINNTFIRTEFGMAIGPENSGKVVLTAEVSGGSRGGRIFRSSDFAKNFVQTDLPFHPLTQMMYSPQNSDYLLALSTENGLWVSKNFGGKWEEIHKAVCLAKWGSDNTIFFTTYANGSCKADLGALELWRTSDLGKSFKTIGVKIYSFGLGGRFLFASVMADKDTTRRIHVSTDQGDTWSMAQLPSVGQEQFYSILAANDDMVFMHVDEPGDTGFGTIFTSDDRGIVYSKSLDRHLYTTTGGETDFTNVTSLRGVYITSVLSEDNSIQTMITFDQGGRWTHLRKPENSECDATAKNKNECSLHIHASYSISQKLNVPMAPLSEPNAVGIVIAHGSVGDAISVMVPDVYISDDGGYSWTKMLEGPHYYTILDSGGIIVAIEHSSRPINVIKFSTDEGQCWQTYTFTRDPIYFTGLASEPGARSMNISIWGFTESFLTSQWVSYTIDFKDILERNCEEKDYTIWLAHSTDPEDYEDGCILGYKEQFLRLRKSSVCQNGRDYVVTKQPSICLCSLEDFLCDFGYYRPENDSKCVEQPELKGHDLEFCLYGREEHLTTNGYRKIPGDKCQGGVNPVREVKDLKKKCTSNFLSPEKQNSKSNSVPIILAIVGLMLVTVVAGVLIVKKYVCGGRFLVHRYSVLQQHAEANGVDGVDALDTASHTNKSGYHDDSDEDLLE

**Q.** For `Cc1cccc(NC(=O)c2ccc(Br)cc2C(=O)O)n1` [Example 1, 5-bromo-2-[(6-methylpyridin-2-yl)carbamoyl]benzoic acid], which IC50 is on record?
**A.** 710 nM

**Q.** `Cc1cccc(NC(=O)c2cc(Br)ccc2C(=O)O)n1` [Example 2, 4-bromo-2-[(6-methylpyridin-2-yl)carbamoyl]benzoic acid] was tested. Which IC50 did it give?
**A.** 12000 nM

**Q.** With `Cc1cccc(NC(=O)c2ccc([N+](=O)[O-])cc2C(=O)O)n1` [Example 9, 2-[(6-methylpyridin-2-yl)carbamoyl]-5-nitrobenzoic acid] as the compound, how does the IC50 read?
**A.** 1700 nM

**Q.** `Cc1cccc(NC(=O)c2ccc(Br)cc2C(=O)O)c1` [Example 20, 5-bromo-2-[(3-methylphenyl)carbamoyl]benzoic acid] was tested. Which IC50 did it give?
**A.** 5200 nM

**Q.** How did the IC50 turn out when `O=C(O)c1cc(C(F)(F)F)ccc1C(=O)Nc1ccc2c(n1)CCCC2` [Example 30, 2-[(5,6,7,8-tetrahydroquinolin-2-yl)carbamoyl]-5-(trifluoromethyl)benzoic acid] was run?
**A.** 100 nM

same assay, conditions: read-out: % inhibition at 50 μM; NTS SPA, compound at 50 μM (footnote *)

**Q.** How did the inhibition at 50 µM turn out when `Cc1cccc(NC(=O)c2ccccc2C(=O)O)n1` [Example 3, 2-[(6-methylpyridin-2-yl)carbamoyl]benzoic acid] was run?
**A.** 15%

**Q.** How did the inhibition at 50 µM turn out when `Cc1cccc(NC(=O)c2cccc(C)c2C(=O)O)n1` [Example 4, 2-methyl-6-[(6-methylpyridin-2-yl)carbamoyl]benzoic acid] was run?
**A.** 5%

**Q.** How did the inhibition at 50 µM turn out when `Cc1cccc(NC(=O)c2ccc(-c3ccccc3)cc2C(=O)O)n1` [Example 10, 4-[(6-methylpyridin-2-yl)carbamoyl]-[1,1′-biphenyl]-3-carboxylic acid] was run?
**A.** 2%

**Q.** `Cc1cccc(NC(=O)c2cc(Cl)ccc2C(=O)O)n1` [Example 11, 4-chloro-2-[(6-methylpyridin-2-yl)carbamoyl]benzoic acid] was tested. Which inhibition at 50 µM did it give?
**A.** 69%

**Q.** For `Cc1ccc(C(=O)O)c(C(=O)Nc2cccc(C)n2)c1` [Example 12, 4-methyl-2-[(6-methylpyridin-2-yl)carbamoyl]benzoic acid], which inhibition at 50 µM is on record?
**A.** 57%

**Q.** `Cc1cccc(NC(=O)c2c(C)cccc2C(=O)O)n1` [Example 16, 3-methyl-2-[(6-methylpyridin-2-yl)carbamoyl]benzoic acid] was tested. Which inhibition at 50 µM did it give?
**A.** 43%

**Q.** How did the inhibition at 50 µM turn out when `CCC(C)NC(=O)c1ccc(Br)cc1C(=O)O` (stereo not drawn) [Example 17, 5-bromo-2-[(butan-2-yl)carbamoyl]benzoic acid] was run?
**A.** 30%

**Q.** How did the inhibition at 50 µM turn out when `CC(C)NC(=O)c1ccc(Br)cc1C(=O)O` [Example 18, 5-bromo-2-[(propan-2-yl)carbamoyl]benzoic acid] was run?
**A.** 35%

**Q.** Which inhibition at 50 µM does the source give for `O=C(O)c1cc(Br)ccc1C(=O)Nc1ccccc1` [Example 19, 5-bromo-2-(phenylcarbamoyl)benzoic acid] here?
**A.** 69%

**Q.** `Cc1cccnc1NC(=O)c1ccc(Br)cc1C(=O)O` [Example 24, 5-bromo-2-[(3-methylpyridin-2-yl)carbamoyl]benzoic acid] was tested. Which inhibition at 50 µM did it give?
**A.** 64%

**Q.** For `Cc1ccc(NC(=O)c2ccc(Br)cc2C(=O)O)cn1` [Example 25, 5-bromo-2-[(6-methylpyridin-3-yl)carbamoyl]benzoic acid], which inhibition at 50 µM is on record?
**A.** 70%

test system: light sensitive cells of the retina in mice; assay: Diabetic mouse model: flash electroretinography (fERG) before and 8 weeks after STZ induction of diabetes; assay type: in vivo; conditions: intravitreal 2 μl of a 1 μg/μl solution, versus vehicle control group
Experimental: Flash electroretinography (fERG) was used to measure the electrical response of the light sensitive cells of the retina in mice both prior to streptozocin (STZ) induction of diabetes (baseline) and 8 weeks after induction. Mice were exposed to increasing intensities of light flashes and the resulting electrical responses, measured in amplitude, were recorded. The skilled person will recognise that a cell with a higher measured amplitude is indicative of a healthy cell whilst cells with lower amplitudes is indicative of a damaged cell which is no longer functioning optimally. In the experimental group, the mice were administered with a polyclonal anti-sortilin antibody (2 ul of a 1 μg/μl solution in Dulbecco's Phosphate buffered saline) by intravitrial administration whereas in the control group the mice were administered with the vehicle only (Dulbecco's Phosphate buffered saline). All other variables, such as food intake, diet, exercise levels and exposure to environmental enrichment were kept the same between the two groups.

**Q.** With `Cc1cccc(NC(=O)c2ccc(C(F)(F)F)cc2C(=O)O)n1` [Example 8, 2-[(6-methylpyridin-2-yl)carbamoyl]-5-(trifluoromethyl)benzoic acid] as the compound, how does the “reduction in the fERG response (a wave and b wave) 8 weeks after induction compared to the baseline” value read?
**A.** smaller for the experimental group compared to the control group

same assay, conditions: intravitreal, fERG 8 weeks after induction

**Q.** With `Cc1cccc(NC(=O)c2ccc(C(F)(F)F)cc2C(=O)O)n1` [Example 8, 2-[(6-methylpyridin-2-yl)carbamoyl]-5-(trifluoromethyl)benzoic acid] as the compound, how does the “protective effect on retinal cells compared with the polyclonal antibody of the first study” value read?
**A.** greater than that of the polyclonal antibody
